Data reported in publication PMC9797212, “Surface Modification of Erythrocytes with Lipid Anchors: Structure–Activity Relationship for Optimal Membrane Incorporation, in vivo Retention, and Immunocompatibility” (Advanced nanobiomed research, 2022).

What was measured:
human RBCs = assay: Labeling of human RBCs with lipids, flow cytometry; format: cell-based; settings: lipids at 25 μM, 1 h; for percentage of labeled human RBCs (in words) / MFI of labeled human RBCs, fold higher than the rest of the lipids: flow cytometry
Text: We acquired commercially available dialkyl indocarbocyanine lipids DiI-C18, DiI-C18:2, DiI-C16, DiI-C12 and synthesized additional headgroup derivatives of DiI-C18: DiI-amine, DiI-PEG5000, and DiI-PEG3400-methyltetrazine (Mtz). In addition, we prepared diacyl glycerol derivatives of Cy3: Cy3-C18, Cy3-C18:1, Cy3-C16, Cy3-C14, Cy3-C12, phospholipid derivative Cy3-distearoyl phosphatidylethanolamine (Cy3-DSPE), and Cy3-cholesterol. This library covers different lipid lengths, lipid types, and also headgroup-tail linkages. In addition, the library includes a limited number of headgroup derivatives relevant to drug delivery. Thus, PEGylated lipids have importance for erythrocyte PEGylation for blood camouflaging. Mtz is a click chemistry group that enables versatile modifications with biomolecules,[13] but also serves as a mimic of a small molecule payload (Mw 230 Da). To determine the labeling efficiency, we used fresh human RBCs from two healthy donors. RBCs were incubated with lipids at 25 μM for 1 h and washed and analyzed with flow cytometry for the percentage of labeled cells and mean fluorescence intensity (MFI). […] Select lipids were then used to label mouse RBCs. The data in Figure 2C,D show generally higher mouse RBC labeling efficiency (MFI and percent RBCs) than human RBCs. […] Finally, we checked the linearity of the Cy3 group signal when incorporated in RBCs.
Fresh human RBCs were obtained from discarded leukodepletion filters after processing sodium citrate anticoagulated donor blood at the Children’s Hospital Colorado Blood Donation Center. Institutional review board approval was not required for discarded material and anonymous samples. RBCs were eluted from leukodepletion filters by applying ACD buffer in the direction of the flow and were used within 2 h after blood collection. Sodium EDTA-anticoagulated mouse blood was collected from female or male BALB/c and NSG mice (8–10 weeks of age) via cardiac puncture, according to the animal protocol approved by the University of Colorado IACUC). Human RBCs were washed in ACD buffer and mouse RBC were washed in 1% BSA/PBS at room temperature at 3,000 g, total 3 times. Erythrocyte suspension (≈10^10/mL) was incubated with 25 μM lipids in ACD buffer (human RBCs) or 1% BSA/PBS (mouse RBCs) at 37 °C for 1 h and washed three times in ACD buffer or 1% BSA/PBS as described above. Labeling efficiency were determined by Guava easyCyte HT flow cytometer (Luminex Corp, Seattle, WA) as described later.

[1] = In vivo circulation of labeled RBCs and lipid retention, flow cytometry, BALB/c mice; settings: for half-life: both sexes, mouse, whole blood (RBCs), iv, mono- or biexponential decay, summary value, read-out: MFI half life, estimated (extrapolated) terminal (converted)
Method: Next, we investigated in vivo retention and longevity of modified RBCs. We used the lipids with the highest labeling efficiency (Figure 2C,D) for in vivo studies: DiI-C18, DiI-C18:2, DiI-C12, Cy3-C12, DiI-PEG3400Mtz, Cy3-DSPE, and Cy3-cholesterol. Labeled RBCs were injected intravenously in BALB/c mice and the circulating levels (percent positive RBCs) and the stability of the lipid (MFI of the labeled population) were analyzed by flow cytometry (Figure 3A). Representative dot plots for DiI-C18 and DiI-C18:2 (Figure 3B) show a distinct population of labeled RBCs at both 1 min (between 9% and 13% of total RBCs) and 3 weeks postinjection. We found differences between lipids in terms of both percent RBC and percent MFI (Figure 3C,D). […] DiI-C18 RBCs had ≈40 days circulation span and only about 33% decrease in MFI at Day 20. […] Cy3-cholesterol RBCs had ≈30 days circulation span, but MFI dropped below 35% at Day 22.
The University of Colorado Institutional Animal Care and Use Committee (IACUC) approved animal experiments (protocol 103 913(11)1D). Mice were treated according to regulations provided by the Office of Laboratory Animal Resources at the University of Colorado. BALB/c and NOD/LtSz-SCID IL2Rγc null (NSG) mice were bred in-house. Mice of 8–10 weeks age (males and females) were used for experiments. Mice were injected intravenously with ≈10^9 RBCs (each strain was injected with RBCs derived from the same strain). At different time intervals, ≈20 μL of blood were obtained with heparinated haematocrit capillary (ThermoFisher) via periorbital plexus. RBCs were resuspended at ≈0.5 million mL^−1 in 1%BSA/PBS and analyzed by Guava easyCyte HT flow cytometer (20 000 RBCs were counted after gating out platelets and leukocytes). The percentage of positive RBCs and mean fluorescence intensity (MFI) of labeled RBCs (if more than 1% of total RBCs) was determined using FlowJo software v.10 (BD Life Sciences, Ashland, OR). For pharmacokinetic analysis, the flow data were normalized to 100% injected dose (MFI and percent labeled RBCs at 1 min) and fit into mono or biexponential decay using the pharmacokinetic modeling software Boomer.[21]

[2] = Lipid stability in RBCs in mouse serum in vitro; format: in vitro ADME, mouse (BALB/c serum); settings: 3 h; for loss in MFI of labeled RBCs: 37 °C
Method: The nature of lipid linker affects in vivo retention. […] To compare the stability of different lipids in vitro, we measured the fluorescence of labeled RBCs after incubation in mouse serum for 3 h.
Mouse RBC labeled with lipids were incubated in mouse serum at 37 °C for up to 3 h. Intact RBCs were removed by centrifugation at 3000 g for 10 min at room temperature. RBCs were washed three times in 1% BSA/PBS to remove the remaining serum, and the labeling (MFI) was determined by flow cytometry as described above. The supernatant was analyzed for fluoresce released from RBC by dotting 2 μL on 0.45 μm nitrocellulose membrane and scanning with a Bio-Rad gel imager for Cy3 fluorescence at 540 nm excitation/560 nm emission. For TLC, 10 parts of methanol were added to 1 part of serum, and the tubes were centrifuged at 500 g for 10 min to pellet the protein fraction. The methanol phase was carefully collected, applied on TLC Silica Gel 60 F254 (EMD Millipore), and separated on the mobile phase chloroform: methanol (9:1) with 0.1% trifluoroacetic acid. The plates were scanned with a Bio-Rad gel imager for Cy3 fluorescence.

mouse RBCs = assay: Labeling of mouse RBCs with lipids, flow cytometry; format: cell-based, mouse (BALB/c); settings: lipids at 25 μM, 1 h
Text: We acquired commercially available dialkyl indocarbocyanine lipids DiI-C18, DiI-C18:2, DiI-C16, DiI-C12 and synthesized additional headgroup derivatives of DiI-C18: DiI-amine, DiI-PEG5000, and DiI-PEG3400-methyltetrazine (Mtz). In addition, we prepared diacyl glycerol derivatives of Cy3: Cy3-C18, Cy3-C18:1, Cy3-C16, Cy3-C14, Cy3-C12, phospholipid derivative Cy3-distearoyl phosphatidylethanolamine (Cy3-DSPE), and Cy3-cholesterol. This library covers different lipid lengths, lipid types, and also headgroup-tail linkages. In addition, the library includes a limited number of headgroup derivatives relevant to drug delivery. Thus, PEGylated lipids have importance for erythrocyte PEGylation for blood camouflaging. Mtz is a click chemistry group that enables versatile modifications with biomolecules,[13] but also serves as a mimic of a small molecule payload (Mw 230 Da). […] RBCs were incubated with lipids at 25 μM for 1 h and washed and analyzed with flow cytometry for the percentage of labeled cells and mean fluorescence intensity (MFI). […]
Fresh human RBCs were obtained from discarded leukodepletion filters after processing sodium citrate anticoagulated donor blood at the Children’s Hospital Colorado Blood Donation Center. […] Labeling efficiency were determined by Guava easyCyte HT flow cytometer (Luminex Corp, Seattle, WA) as described later.

[3] = parameters: method as in PMID 33532572; settings: 48 h postinjection in mice ref 8a; cited from earlier work
[4] = Organ biodistribution of labeled RBCs (NIR imaging, confocal microscopy of liver and spleen); settings: Day 40 (DiI-C18 RBCs), Day 29 (DiI-PEG3400Mtz RBCs)
Method: To determine the location of the label in the clearance organs, we imaged freshly excised livers and spleens of BALB/c mice injected with DiI-C18 RBCs and DiI-PEG3400Mtz RBCs (Day 40 and Day 29, respectively) with confocal microscope.
When labeled RBCs reached <1% of total RBCs (usually 10% or less of the injected dose), mice were injected with FITC-lectin and Hoechst and sacrificed with carbon dioxide (CO2) followed by cardiac perfusion. Fresh livers and spleens were placed on glass slides and imaged with Nikon Eclipse AR1HD inverted confocal microscope with Plan Apo 10 objective as described.[18]

[5] = tested on: mouse peritoneal macrophages; assay: Uptake of labeled RBCs by peritoneal macrophages; format: cell-based; settings: 24 h incubation, fluorescent microscopy
Method: Fresh nonactivated macrophages were isolated and seeded in culture for 24 h in a 96-well culture-treated plate (Corning Inc.) as described.[19] On the next day, labeled RBCs were added (≈1 × 10^5 RBC/well) in triplicates, and macrophages were incubated for 24 h. In some experiments, PMF were prelabeled with 10 μM DiO for 2 h before addition of RBCs. After incubation, macrophages were washed with PBS 4 times to remove nonbound RBCs, fixed with 4% formalin, and stained with nuclear stain Hoechst. Cells were imaged under 100× magnification with Zeiss Axio Observer 5 epifluorescent microscope, and ≈7 microscopic fields were acquired. To verify RBC localization outside the cells, a Nikon Eclipse AR1HD inverted confocal microscope with 405, 488, 561, and 640 nm excitation lasers and corresponding emission filters was used. The percentage of DiI+ cells and rosette+ cells per field was determined manually and plotted with Prism.

[6] = parameters: species or system BALB/c mice; settings: mouse
Method: Figure 6. Biodistribution and immune recognition of RBCs. A) RBCs labeled with DiR were injected in BALB/c mice and blood fluorescence was monitored with NIR scanner Li-COR Odyssey. […] D) Confocal microscopy images of fresh livers and spleens of mice injected with DiI-C18 and DiI-PEG3400Mtz (after in vivo labeling of blood vessels and nuclei with FITC-lectin and Hoechst). The lipid accumulates in extrasinusoidal cells in the spleen and predominantly in sinusoidal cells in the liver (i.e., endothelium and Kupffer cells). […] E) RBCs were incubated with fresh peritoneal macrophages for 24 h. […] F) Quantification of percent cells (per field) that contain intracellular DiI. G) Quantification of percent cells (per field) that contain DiI+ rosettes. P-value: ****0.0001; ***<0.001 2-sided t-test, alpha 0.05.

SMILES | percentage of labeled human RBCs (in words) (human RBCs) | circulation and retention of labeled RBCs (in words) ([1]; i.v., BALB/c) | loss in MFI of labeled RBCs [2] | MFI of labeled human RBCs, fold higher than the rest of the lipids (human RBCs) | half-life ([1]; BALB/c) | other results
CCCCCCCCCCCC(=O)OCC(CNC(=O)CCCCC[N+]1=C(/C=C/C=C2/N(C)c3ccccc3C2(C)C)C(C)(C)c2ccccc21)OC(=O)CCCCCCCCCCC (stereo not drawn) [Cy3-C12] | highest percentage of labeled human RBCs | disappeared within a few days postinjection | less than 15% | – | – | drop in MFI of labeled RBCs ([1]; Day 3, 1 min postinjection = 100%): 85%
CCCCCCCCCCCCCC(=O)OCC(CNC(=O)CCCCC[N+]1=C(/C=C/C=C2/N(C)c3ccccc3C2(C)C)C(C)(C)c2ccccc21)OC(=O)CCCCCCCCCCCCC (stereo not drawn) [Cy3-C14] | highest percentage of labeled human RBCs | – | – | – | – | –
CCCCCCCCCCCCCCCCCC(=O)OC[C@H](COP(=O)(O)OCCNC(=O)CCCCC[N+]1=C(/C=C/C=C2/N(C)c3ccccc3C2(C)C)C(C)(C)c2ccccc21)OC(=O)CCCCCCCCCCCCCCCCC [Cy3-DSPE, Cy3-distearoyl phosphatidylethanolamine] | highest percentage of labeled human RBCs | disappeared within a few days postinjection | over 60% | 2–3 fold | – | human RBC labeling efficiency (human RBCs): 100%; TLC analysis of serum supernatant [2]: presence of intact Cy3-DSPE along with some degradation products; fluorescence released in serum from labeled RBCs, relative to DiI-C18 RBCs [2]: five times more fluorescence released in serum
CC(C)CCCC(C)C1CCC2C3CC=C4CC(OC(=O)CCCCC[N+]5=C(C=CC=C6N(C)c7ccccc7C6(C)C)C(C)(C)c6ccccc65)CCC4(C)C3CCC12C (stereo not drawn) [Cy3-cholesterol] | – | longest circulation and retention | less than 15% | – | 300 h | MFI of labeled RBCs, percent of initial ([1]; Day 22, 1 min postinjection = 100%): below 35%
CCCCCCCCCCCCN1/C(=C/C=C/C2=[N+](CCCCCCCCCCCC)c3ccccc3C2(C)C)C(C)(C)c2ccccc21 [DiI-C12] | highest percentage of labeled human RBCs | – | less than 15% | 2–3 fold | 72 h | human RBC labeling efficiency (in words) (human RBCs): highest efficiency; decrease in MFI of labeled RBCs (in words) ([1]; i.v., BALB/c): much faster decrease in MFI than DiI-C18 and Cy3-cholesterol; mouse RBC labeling efficiency (in words) (mouse RBCs): highest efficiency
CCCCCCCCCCCCCCCCN1/C(=C/C=C/C2=[N+](CCCCCCCCCCCCCCCC)c3ccccc3C2(C)C)C(C)(C)c2ccccc21 [DiI-C16] | – | – | – | 2–3 fold | – | –
CCCCCCCCCCCCCCCCCCN1/C(=C/C=C/C2=[N+](CCCCCCCCCCCCCCCCCC)c3ccccc3C2(C)C)C(C)(C)c2ccccc21 [DiI-C18] | – | longest circulation and retention | less than 15% | 2–3 fold | > 1920 h | human RBC labeling efficiency (human RBCs): 28%; decrease in MFI of labeled RBCs ([1]; Day 20, 1 min postinjection = 100%): about 33%; lipid present in the RBC membrane [3]: up to 90%; location of Cy3 signal in liver and spleen, confocal microscopy [4]: predominant accumulation of Cy3 signal in extrasinusoidal spleen cells and some accumulation in the liver sinusoids; macrophages with intracellular Cy3 fluorescence [5]: mostly intracellular uptake
CCCCCCCCCCCCCCCCCCN1/C(=C/C=C/C2=[N+](CCCCCCCCCCCCCCCCCC)c3ccc(CN)cc3C2(C)C)C(C)(C)c2ccccc21 [DiI-amine] | – | – | – | – | – | labeling efficiency of human RBCs, fold lower than the parent DiI-C18 (human RBCs): ≈ 4 fold
CCCCCCCCCCCCCCCCCCN1C(=CC=CC=CC=CC2=[N+](CCCCCCCCCCCCCCCCCC)c3ccccc3C2(C)C)C(C)(C)c2ccccc21.[I-] [DiR-C18, 1,1′-Dioctadecyl-3,3,3′,3′-Tetramethylindotricarbocyanine Iodide] | – | – | – | – | – | in vivo life span of labeled RBCs [6]: over 30 days; terminal half life of labeled RBCs ([6]; in vivo): 175 h
